Experimental data from US20250319047A1, “ANTIMICROBIAL TREATMENT AND PREVENTION BY PERILLYL ALCOHOL AND DERIVATIVES” (priority 2024, published 2025).

Tests used:
[1] = humans, dogs, and rats; cited from earlier work
[2] = rats, prior systemic studies; cited from earlier work
[3] = in vivo
Description: (§1) The antimicrobial effectiveness of POH diminishes in more dilute solutions. […] However, POH at concentrations equal to and higher than 4% will cause skin irritation and thus are not practical for clinical applications. Therefore, the highest concentration proposed is 3% to maintain a practical clinical range.

all microorganisms = assay: Challenge of antimicrobial effectiveness of POH by concentration; assay type: cell-based
Description: as §1

[4] = acids formed by oxidation of POH/PCO; cited from earlier work

| SMILES | metabolization [1] | metabolization, detection of parent compound [2] | concentration that will cause skin irritation [3] [%] | antimicrobial effectiveness (all microorganisms; 0.1% concentration) | antimicrobial effectiveness (all microorganisms; over 90% concentrations) | antimicrobial activity [4] |
| --- | --- | --- | --- | --- | --- | --- |
| C=C(C)[C@@H]1CC=C(CO)CC1 [Perillyl alcohol, perillyl alcohol] | rapidly metabolized | not detected | ≥ 4 | reasonable against all microorganisms | eradicating the microorganisms completely |  |
| C=C(C)[C@@H]1CC=C(C(=O)O)CC1 [Perillic] |  |  |  |  |  | lose the antimicrobial activity |
| C=C(C)C1CCC(C(=O)O)CC1 (stereo not shown) [Dihydroperillic] |  |  |  |  |  | lose the antimicrobial activity |
